Measured values taken from ChEMBL document CHEMBL1201862, “PubChem BioAssay data set” (2004).
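Tested at 5 concentrations; 48 h exposure; 96-well plates; endpoints linearly interpolated, else capped at highest concentration. GI50 = concentration required for 50% inhibition of growth.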 Calls of active or inactive are those of the source. Cut-off read from the data, not from the text of the source: active = GI50 up to about 1.1 µM and inactive = higher.

Legend:
Assay in all cases: growth of human tumour cells (NCI), 48 h
U-251 = tested on: U-251
BT-549 = tested on: BT-549
HOP-92 = tested on: HOP-92
CCRF-CEM = tested on: CCRF-CEM
HT-29 = tested on: HT-29
SK-OV-3 = tested on: SK-OV-3
LOX IMVI = tested on: LOX IMVI
MDA-N = tested on: MDA-N
Malme-3M = tested on: Malme-3M
EKVX = tested on: EKVX
SK-MEL-2 = tested on: SK-MEL-2
TK-10 = tested on: TK-10
HOP-62 = tested on: HOP-62
UO-31 = tested on: UO-31
A498 = tested on: A498
Hs-578T = tested on: Hs-578T
HL-60 = tested on: HL-60
T47D = tested on: T47D
OVCAR-4 = tested on: OVCAR-4
OVCAR-8 = tested on: OVCAR-8

Measured: GI50

Cc1ccc(C(=O)Nc2ccc(S(=O)(=O)O)c3cc(S(=O)(=O)O)cc(S(=O)(=O)O)c23)cc1NC(=O)c1cccc(NC(=O)Nc2cccc(C(=O)Nc3cc(C(=O)Nc4ccc(S(=O)(=O)O)c5cc(S(=O)(=O)O)cc(S(=O)(=O)O)c45)ccc3C)c2)c1 [SURAMIN]
inactive: U-251 77.3 µM | BT-549 95.7 µM | HOP-92 54.5 µM | CCRF-CEM > 100 µM | HT-29 62.4 µM | SK-OV-3 > 88.1 µM | LOX IMVI 51.1 µM | MDA-N > 100 µM | Malme-3M > 83 µM | EKVX > 69.5 µM | SK-MEL-2 58.9 µM | TK-10 32 µM | HOP-62 > 100 µM | UO-31 39.4 µM | A498 > 84.3 µM | Hs-578T > 100 µM | HL-60 49.4 µM | T47D > 100 µM | OVCAR-4 79.3 µM | OVCAR-8 74.8 µM

S=P(N1CC1)(N1CC1)N1CC1 [THIOTEPA]
inactive: U-251 58.7 µM | BT-549 175 µM | HOP-92 112 µM | CCRF-CEM 9.46 µM | HT-29 159 µM | SK-OV-3 101 µM | LOX IMVI 39.6 µM | MDA-N 161 µM | Malme-3M 141 µM | EKVX 234 µM | SK-MEL-2 220 µM | TK-10 333 µM | HOP-62 31.3 µM | UO-31 97.9 µM | A498 126 µM | Hs-578T 361 µM | HL-60 7.45 µM | T47D 171 µM | OVCAR-4 188 µM | OVCAR-8 110 µM
